This passage reports CC50 results from publication PMC6792352, “Limited Chemical Structural Diversity Found to Modulate Thyroid Hormone Receptor in the Tox21 Chemical Library” (Environmental Health Perspectives, 2019).

The data set in a line: in vitro. The following applies: rat, gh3-tre-luc cells.

Counter-ions that a name gives are not always drawn.

As a reminder, the CC50 is the concentration at which the toxic effect on the cells reaches its halfway point. A low value points to greater toxicity to the cells. `COc1ccc(Cl)cc1C(=O)NCCc1ccc(S(=O)(=O)NC(=O)NC2CCCCC2)cc1` [Glybenclamide]: the cytotoxic concentration (CC50) at 24 h (AC50 (uM) modified / 1000) is above 90 µM.
Turning to `CC(C(=O)O)c1ccc2c(c1)[nH]c1ccc(Cl)cc12` (stereo not drawn) [Carprofen], under “AC50 (uM) modified / 1000”, the half-maximal cytotoxic concentration (CC50) at 24 h is above 50 µM.
On the same count and under the same terms, the figure for `CC[Si](OC(C)=O)(OC(C)=O)OC(C)=O` [Ethyltriacetoxysilane] is above 90 µM; for `CCCC(=O)OCCC(C)CCC=C(C)C` (stereo not drawn) [Citronellyl butyrate] it is above 90 µM; for `Oc1ccc(C2(c3ccc(O)cc3)CCCCC2)cc1` [Bisphenol Z] it is 39.8 µM.
Compound `Cc1cccc(C(C)(C)C)c1O` [2-tert-Butyl-6-methylphenol] registered a CC50 at 24 h (AC50 (uM) modified / 1000) above 90 µM.
For the compound `CCCCOCCOCCOCCO` [2-[2-(2-Butoxyethoxy)ethoxy]ethanol], the CC50 at 24 h (AC50 (uM) modified / 1000) is above 90 µM.
Same read-out and setting: the figure for `CS(=O)(=O)c1cc(C(F)(F)F)ccc1C(=O)c1cnoc1C1CC1` [Isoxaflutole] is above 90 µM; for `COc1ccccc1NC(=O)c1cc2ccccc2cc1O` [3-Hydroxy-2-naphthoic o-anisidide] it is above 90 µM.
Regarding `CCCBr` [1-Bromopropane], the CC50 at 24 h (AC50 (uM) modified / 1000, Tox21_110001=Tox21_200619, viability, 1 nM T3 present, 24 h) is above 90 µM.
On to `CCC(=O)O[C@](Cc1ccccc1)(c1ccccc1)[C@H](C)CN(C)C` [(2S,3R)-(+)-4-(Dimethylamino)-3-methyl-1,2-diphenyl-2-butanol propionate hydrochloride], for which the CC50 at 24 h (AC50 (uM) modified / 1000, Tox21_110001=Tox21_112860, viability, 1 nM T3 present, 24 h) was 30.1 µM.
In turn, `Cc1nnc(C(C)C)n1[C@@H]1C[C@H]2CC[C@@H](C1)N2CC[C@H](NC(=O)C1CCC(F)(F)CC1)c1ccccc1` [Maraviroc] yielded a CC50 at 24 h (AC50 (uM) modified / 1000) above 50 µM.
In turn, `CCCCCCCCOc1ccccc1C(=O)Nc1ccc(C(=O)OCC[N+](C)(CC)CC)cc1` [Otilonium bromide] yielded a CC50 at 24 h (AC50 (uM) modified / 1000) of 22.8 µM. In other words, the double-digit micromolar range.
Still for that read-out and setting: the result for `Cc1cccc2c1cc1ccc3cccc4ccc2c1c34` [7-Methylbenzo(a)pyrene] reads above 90 µM.
As for `CC(C)C[C@H](CN)CC(=O)O` [Pregabalin], the half-maximal cytotoxic concentration (CC50) at 24 h (AC50 (uM) modified / 1000, Tox21_110001=Tox21_111475, viability, 1 nM T3 present, 24 h) was above 50 µM.
For the compound `CCN(CC)CCOC(=O)[C@H](Cc1cccc2ccccc12)C[C@H]1CCCO1` [Nafronyl oxalate], the CC50 at 24 h (AC50 (uM) modified / 1000) was above 20 µM.
The same measure, in the same setting: the figure for `O=C1C(N(CO)C(=O)NCO)N(CO)C(=O)N1CO` (stereo not drawn) [Diazolidinyl urea] is above 90 µM; for `CCN(CC)CCNc1ccc(CO)c2sc3ccccc3c(=O)c12` [Hycanthone] it is 2.88 µM.
`CC1=C(O)C(=O)OC1C` (stereo not drawn) [4,5-Dimethyl-3-hydroxy-2,5-dihydrofuran-2-one]: under “AC50 (uM) modified / 1000”, the half-maximal cytotoxic concentration (CC50) at 24 h was above 90 µM.
On the same count and under the same terms, the result for `CCCCCCCCCCCCCCCC(=O)OC[C@@H](O)[C@H]1OC[C@H](O)[C@H]1O` [Sorbitan monohexadecanoate] reads above 50 µM; that for `Cc1cc(C(C)(C)c2cc(C)c(O)c(C)c2)cc(C)c1O` [4,4'-Propane-2,2-diylbis(2,6-dimethylphenol)], 16.9 µM.
Still for that read-out and setting: the result for `Cn1c(=O)cc(Oc2ccc(F)cc2F)c2cnc(NCC(C)(C)O)nc21` [PharmaGSID_48507] reads above 90 µM; that for `O=C(O)c1ccc([N+](=O)[O-])cc1` [4-Nitrobenzoic acid], above 90 µM.
Turning to `O=C/C(Cl)=C(/Cl)C(=O)O` [Mucochloric acid], the half-maximal cytotoxic concentration (CC50) at 24 h runs as follows: (AC50 (uM) modified / 1000, Tox21_110001=Tox21_201305, viability, 1 nM T3 present, 24 h) 74 µM; (AC50 (uM) modified / 1000, Tox21_110001=Tox21_302857, viability, 1 nM T3 present, 24 h) 63.6 µM.
`O=C(Nc1cccc([N+](=O)[O-])c1)c1cc2ccccc2cc1O` [3-Hydroxy-N-(3-nitrophenyl)naphthalene-2-carboxamide]: the half-maximal cytotoxic concentration (CC50) at 24 h (AC50 (uM) modified / 1000) is 1.77 µM.
In turn, `CCCCCCCCCCCCN(C)C` [N,N-Dimethyldodecan-1-amine] yielded a CC50 at 24 h (AC50 (uM) modified / 1000) above 90 µM.
Consider `CCCCCCCCCO` [1-Nonanol], for which, where the note is “AC50 (uM) modified / 1000”, the CC50 at 24 h was above 90 µM.
On to `Cc1cn([C@H]2C=C[C@@H](CO)O2)c(=O)[nH]c1=O` [Stavudine], for which the CC50 at 24 h (AC50 (uM) modified / 1000) was above 90 µM.
Same read-out and setting: the figure for `F/C(COc1ccc2c(c1)[nH]c1ccccc12)=C1/CN2CCC1CC2` [2-{[(2E)-2-(1-Azabicyclo[2.2.2]oct-3-ylidene)-2-fluoroethyl]oxy}-9H-carbazole] is 7.59 µM; for `C=CCN1CCc2nc(N)sc2CC1` [Talipexole] it is above 50 µM.
For `CC(CN1c2ccccc2Sc2ccc(S(=O)(=O)N(C)C)cc21)N(C)C` (stereo not drawn) [Fonazine], the CC50 at 24 h (AC50 (uM) modified / 1000) was 21.4 µM. In other words, the double-digit micromolar range.
In turn, `Cn1c(N)c(N=O)c(=O)n(C)c1=O` [6-Amino-1,3-dimethyl-5-nitroso-2,4(1H,3H)-pyrimidinedione] showed a CC50 at 24 h (AC50 (uM) modified / 1000) above 90 µM.
`Nc1ccc(S(=O)(=O)Nc2ccccc2)cc1` [Sulfabenz] displayed a CC50 at 24 h (AC50 (uM) modified / 1000) above 50 µM.
The compound `CC(C)(C)OCC1CO1` (stereo not drawn) [tert-Butyl glycidyl ether] came in with a 50% cytotoxic concentration (CC50) at 24 h (AC50 (uM) modified / 1000) above 90 µM.
As to `CCc1cc(Cc2cc(CC)c(N)c(CC)c2)cc(CC)c1N` [4,4'-Methylenebis(2,6-diethylaniline)], under “AC50 (uM) modified / 1000”, the 50% cytotoxic concentration (CC50) at 24 h came out at 61.9 µM.
Regarding `Nc1ccc(N=Nc2ccccc2)c(N)c1` [C.I. Basic Orange 2], the CC50 at 24 h (AC50 (uM) modified / 1000) stood at 64.1 µM.
Still for that read-out and setting: the figure for `CCOc1ccc2nc(S(N)(=O)=O)sc2c1` [Ethoxzolamide] is above 50 µM; for `C=C(C)C(=O)OCCC(C)OC(=O)C(=C)C` (stereo not drawn) [1,3-Butyleneglycol dimethacrylate] it is above 90 µM; for `NCCS` [Cysteamine hydrochloride] it is above 50 µM.
Same read-out and setting: the figure for `CCCCOC(=O)c1ccccc1` [Butyl benzoate] is above 90 µM; for `CC[C@]1(O)CC[C@H]2[C@@H]3CCC4=CCCC[C@@H]4[C@H]3CC[C@@]21C` [Ethylestrenol] it is above 50 µM.
For the setting “AC50 (uM) modified / 1000”, `Nc1ccccc1N` [1,2-Phenylenediamine dihydrochloride] displayed a CC50 at 24 h above 90 µM.
In turn, `O=C(O)c1ccccc1Nc1cc(Cl)ccc1C(=O)O` [Lobenzarit sodium] returned a CC50 at 24 h (AC50 (uM) modified / 1000) above 50 µM.
For the compound `CN(c1nccc(=O)[nH]1)C1CCN(c2nc3ccccc3n2Cc2ccc(F)cc2)CC1` [Mizolastine], for the setting “AC50 (uM) modified / 1000”, the CC50 at 24 h was above 50 µM.
Turning to `OCc1ccc(Cl)cc1Cl` [2,4-Dichlorobenzyl alcohol], the CC50 at 24 h (AC50 (uM) modified / 1000) was above 90 µM.
In the case of `CCC1(C)CC(=O)NC1=O` (stereo not drawn) [Ethosuximide], under “AC50 (uM) modified / 1000”, the CC50 at 24 h was above 50 µM.
The same measure, in the same setting: the figure for `Brc1ccc(Oc2ccccc2)cc1` [p-Bromodiphenyl ether] is above 90 µM.
`N[C@H](C(=O)O)c1ccc(O)cc1` [Oxfenicine]: for the setting “AC50 (uM) modified / 1000”, the cytotoxic concentration (CC50) at 24 h was above 50 µM.
The same measure, in the same setting: the figure for `CC(=O)OCCCc1ccccc1` [3-Phenylpropyl acetate] is above 90 µM; for `C=C1[C@@H]2CC[C@@H](C2)C1(C)C` [Camphene] it is above 90 µM.
The same measure, in the same setting: the result for `CCOC(=O)COc1cc(-n2ncc(C(F)(F)F)c(C)c2=O)c(F)cc1Cl` [Flufenpyr-ethyl] reads above 90 µM; that for `Cc1cccc2nccnc12` [5-Methylquinoxaline], above 90 µM.
Same read-out and setting: the result for `Nc1ccncc1` [4-Aminopyridine] reads above 90 µM.
With `CC(CO)(CO)CO` [2-(Hydroxymethyl)-2-methyl-1,3-propanediol], the CC50 at 24 h (AC50 (uM) modified / 1000) was above 90 µM.
The same measure, in the same setting: the figure for `Fc1ccc([C@@H]2CCNC[C@H]2COc2ccc3c(c2)OCO3)cc1` [Paroxetine] is 10.7 µM; for `Nc1ccc2cc3ccccc3cc2c1` [2-Aminoanthracene] it is above 90 µM; for `CN(C)c1ccc(CCO)cc1` [p-N,N-Dimethylaminophenethanol] it is above 90 µM.
Still for that read-out and setting: the figure for `CN1Cc2c(N)cccc2C(c2ccccc2)C1` (stereo not drawn) [Nomifensine] is 38.8 µM; for `CCc1nn(C2CCCCC2)c2cc(C3(C#N)CCC(C(=O)O)CC3)ccc12` (stereo not drawn) [CP-401387] it is 49.9 µM.
The compound `CC/C=C/C#N` [2-Pentenenitrile] displayed a CC50 at 24 h (AC50 (uM) modified / 1000) above 90 µM.
Still for that read-out and setting: the figure for `Nc1cc(N)cc(C(=O)O)c1` [3,5-Diaminobenzoic acid] is above 90 µM.
Same read-out and setting: the figure for `C=CCCC=C` [1,5-Hexadiene] is above 90 µM; for `CC(=O)OC[C@H]1O[C@@H](n2ncc(=O)[nH]c2=O)[C@H](OC(C)=O)[C@@H]1OC(C)=O` [6-Azaribine] it is above 50 µM; for `CC(C(=O)O)c1ccc(C2CCCCC2)c2ccccc12` (stereo not drawn) [Quadrisol] it is above 50 µM.
On the same count and under the same terms, the result for `O=C(O)Cc1cn(-c2ccccc2)nc1-c1ccc(Cl)cc1` [Lonazolac] reads above 50 µM.
For `OC(O)C(Cl)(Cl)Cl` [Chloral hydrate], the cytotoxic concentration (CC50) at 24 h is above 50 µM (AC50 (uM) modified / 1000, Tox21_110001=Tox21_111614, viability, 1 nM T3 present, 24 h) and above 90 µM (AC50 (uM) modified / 1000, Tox21_110001=Tox21_200110, viability, 1 nM T3 present, 24 h).
The compound `CC1(C)C(=O)NC(=O)NC1=O` [5,5-Dimethylbarbituric acid] registered a CC50 at 24 h (AC50 (uM) modified / 1000) above 90 µM.
The same measure, in the same setting: the figure for `COc1ccc(-c2cc(=O)c3c(O)cc(O[C@@H]4O[C@H](CO[C@@H]5O[C@@H](C)[C@H](O)[C@@H](O)[C@H]5O)[C@@H](O)[C@H](O)[C@H]4O)cc3o2)cc1O` [Diosmin] is above 50 µM.
For the setting “AC50 (uM) modified / 1000, Tox21_110001=Tox21_201786, viability, 1 nM T3 present, 24 h”, `CCCC=NO` [Butanal oxime] gave a cytotoxic concentration (CC50) at 24 h above 90 µM.
Where the note is “AC50 (uM) modified / 1000”, `Cc1ccc(NC(=O)c2ccc(CN3CCN(C)CC3)cc2)cc1Nc1nccc(-c2cccnc2)n1` [Imatinib mesylate] gave a CC50 at 24 h of 18.5 µM.
Same read-out and setting: the result for `CCNc1nc(NC(C)C(C)C)nc(SC)n1` (stereo not drawn) [Dimethametryn] reads above 90 µM; that for `FC(F)(F)c1ccc(Cl)c(Cl)c1` [1,2-Dichloro-4-(trifluoromethyl)benzene], above 90 µM.
`OCC(O)[C@@H](O)[C@H](O)[C@H](O)CO[C@H]1O[C@H](CO)[C@@H](O)[C@H](O)[C@H]1O` (stereo partly drawn) [Isomalt] yielded a CC50 at 24 h (AC50 (uM) modified / 1000) above 90 µM.
